Test results published in patent US8933105B2, “Pyrrole compounds” (Takeda Pharmaceutical Company Limited, priority 2007, dated 2015).
pIC50: −log10 of the molar value. Where a name gives a salt, the structure may show the parent alone.

Columns and labels:
HepG2 = experiment: ATP content test (intracellular ATP content, ATPLite); type: cell-based, Human; settings: HepG2, 30 μM, culture for one day, relative value to control (without addition of drug)
Protocol: (§1) Human liver cancer-derived cell line HepG2 (ATCC No. HB-8065) was passaged using Dulbecco's Modified Eagle medium (DMEM; Invitrogen) containing 10% fetal bovine serum (FBS; TRACE SCIENTIFIC LTD.), 1 mmol/L sodium pyruvate (Invitrogen), 2 mmol/L L-glutamine (Invitrogen), 50 IU/mL penicillin (Invitrogen) and 50 μg/mL streptomycin (Invitrogen) at 5% CO2, 37° C. The test reagent was prepared with DMSO to 10 mM, and further diluted with DMEM medium containing 0.5% FBS, 1 mmol/L sodium pyruvate, 2 mmol/L L-glutamine, 50 IU/mL penicillin and 50 μg/mL streptomycin to a final concentration of DMSO of 0.1%. HepG2 (2×10^4 cells/well) was cultured on a 96 well white plate (Costar) with the test reagent at 5% CO2, 37° C. After culture for one day, the intracellular ATP content was measured using ATPLite™ (PerkinElmer Life Sciences). The results are shown in Table 26 (n≧3, average value±SD) as a relative value (%) to control (without addition of drug) at 30 μM.

Caspase-3/7 = Caspase-3/7 activity test (Caspase-Glo 3/7 Assay); type: cell-based, Human; settings: HepG2, 30 μM, culture for one day, relative to maximum with Staurosporine (100%) and no test reagent (0%)
Protocol: as §1
Caspase-3/7 Activity Test
The Caspase-3/7 activity in the cells cultured for one day by a method similar to that in Experimental Example 2 was measured using Caspase-Glo 3/7 Assay (Promega). The results are shown in Table 26 (n≧3, average value±SD) as relative activity (%) of each reagent based on the maximum value of Caspase-3/7 activity when exposed to Staurosporine (100%), and the activity without addition of a test reagent (0%).

[1] = molecular target: T1, proton, potassium-adenosine triphosphatase (H+,K+-ATPase) (Sus scrofa, UniProt P19156); experiment: Proton potassium-adenosine triphosphatase (H+,K+-ATPase) inhibitory activity test; type: biochemical; settings: swine gastric microsomal fraction, pH 6.5, 37° C.
T1 construct: a gastric mucous membrane microsomal fraction was prepared from the stomach of swine; from tissue; host or cells: swine stomach, gastric mucous membrane microsomal fraction
Protocol: Proton Potassium-Adenosine Triphosphatase (H^+,K^+-ATPase) Inhibitory Activity Test
According to the method [Biochim. Biophys. Acta, 728, 31 (1983)] of Wallmark et al., a gastric mucous membrane microsomal fraction was prepared from the stomach of swine. First, the stomach was removed, washed with tap water, immersed in 3 mol/L brine, and the surface of the mucous membrane was wiped with a paper towel. The gastric mucous membrane was detached, chopped, and homogenized in a 0.25 mol/L saccharose solution (pH 6.8) containing 1 mmol/L EDTA and 10 mmol/L tris-hydrochloric acid using polytron (Kinematica). The obtained homogenate was centrifuged at 20,000×g for 30 min and the supernatant was centrifuged at 100,000×g for 90 min. The precipitate was suspended in 0.25 mol/L saccharose solution, superimposed on a 0.25 mol/L saccharose solution containing 7.5% Ficoll, and centrifuged at 100,000×g for 5 hr. The fraction containing the interface between the both layers was recovered, and centrifugally washed with 0.25 mol/L saccharose solution.
The obtained microsomal fraction was used as a proton, potassium-adenosine triphosphatase standard product.
To 40 μL of a 50 mmol/L HEPES-tris buffer (5 mmol/L magnesium chloride, 10 mmol/L potassium chloride, 10 μmol/L valinomycin, pH=6.5) containing 2.5 μg/mL (based on the protein concentration) of the enzyme standard product was added a test compound (5 μL) dissolved in a 10% aqueous dimethyl sulfoxide solution, and the mixture was incubated at 37° C. for 30 min. The enzyme reaction was started by adding 5 μL of a 2 mmol/L adenosine triphosphate tris salt solution (50 mmol/L HEPES-tris buffer (5 mmol/L magnesium chloride, pH 6.5)). The enzyme reaction was carried out at 37° C. for 20 min, and 15 μL of a malachite green solution (0.12% malachite green solution in sulfuric acid (2.5 mol/L), 7.5% ammonium molybdate and 11% Tween 20 were mixed at a ratio of 100:25:2) was added to quench the reaction. After allowing to stand at room temperature for 15 min, the resulting reaction product of inorganic phosphorus with malachite green was calorimetrically determined at a wavelength of 610 nm. In addition, the amount of the inorganic phosphoric acid in the reaction solution free of potassium chloride was measured in the same manner, which was subtracted from the inorganic phosphoric acid amount in the presence of potassium chloride to determine the proton, potassium-adenosine triphosphatase activity. The inhibitory rate (%) was determined from the activity value of the control and the activity values of various concentrations of the test compound, and the 50% inhibitory concentration (IC50) of the proton, potassium-adenosine triphosphatase was determined.

T1 sequence (P19156 2-1034 limits assumed): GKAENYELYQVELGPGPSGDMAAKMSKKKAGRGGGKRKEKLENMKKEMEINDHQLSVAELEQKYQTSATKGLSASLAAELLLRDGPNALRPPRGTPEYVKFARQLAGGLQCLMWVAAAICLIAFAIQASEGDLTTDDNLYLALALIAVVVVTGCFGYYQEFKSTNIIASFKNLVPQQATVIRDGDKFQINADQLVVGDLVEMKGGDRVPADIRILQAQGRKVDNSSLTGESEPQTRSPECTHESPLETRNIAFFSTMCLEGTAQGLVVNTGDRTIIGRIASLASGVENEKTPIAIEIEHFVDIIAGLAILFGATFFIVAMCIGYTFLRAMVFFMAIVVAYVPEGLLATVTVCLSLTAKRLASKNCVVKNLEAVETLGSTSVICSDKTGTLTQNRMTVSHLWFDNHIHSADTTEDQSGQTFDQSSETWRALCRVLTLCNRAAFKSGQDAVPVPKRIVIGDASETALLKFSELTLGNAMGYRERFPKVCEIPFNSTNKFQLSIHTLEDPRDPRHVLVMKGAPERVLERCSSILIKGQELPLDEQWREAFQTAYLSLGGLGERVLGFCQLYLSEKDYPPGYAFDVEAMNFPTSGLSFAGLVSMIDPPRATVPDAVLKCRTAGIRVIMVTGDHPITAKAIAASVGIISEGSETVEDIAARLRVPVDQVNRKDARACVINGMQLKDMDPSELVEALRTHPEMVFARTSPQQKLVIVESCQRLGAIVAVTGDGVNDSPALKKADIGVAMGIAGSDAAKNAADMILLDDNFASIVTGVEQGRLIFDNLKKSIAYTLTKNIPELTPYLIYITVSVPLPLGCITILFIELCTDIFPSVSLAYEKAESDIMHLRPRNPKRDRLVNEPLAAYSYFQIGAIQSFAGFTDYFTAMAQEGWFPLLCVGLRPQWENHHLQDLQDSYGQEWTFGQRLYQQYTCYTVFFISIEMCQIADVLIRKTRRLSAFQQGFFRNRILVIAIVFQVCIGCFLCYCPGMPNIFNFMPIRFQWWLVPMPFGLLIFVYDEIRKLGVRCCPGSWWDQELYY
T1 sequence (P18434 whole entry partner): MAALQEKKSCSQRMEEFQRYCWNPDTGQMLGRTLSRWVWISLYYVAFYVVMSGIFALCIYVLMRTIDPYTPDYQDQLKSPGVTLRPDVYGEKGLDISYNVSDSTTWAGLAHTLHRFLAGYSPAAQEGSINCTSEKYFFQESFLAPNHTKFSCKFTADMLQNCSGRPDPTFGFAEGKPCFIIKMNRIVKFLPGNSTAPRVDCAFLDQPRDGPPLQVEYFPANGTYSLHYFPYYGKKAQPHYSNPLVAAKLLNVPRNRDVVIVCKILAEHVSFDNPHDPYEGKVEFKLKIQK

ATP content (%, 30 μM) (HepG2)	Caspase-3/7 activity (%, 30 μM) (Caspase-3/7)	pIC50 [1]	SMILES
96.8%	−0.4%	7.19	CNCc1cc(-c2cccnc2Cl)n(S(=O)(=O)c2cccc(C#N)c2)c1.O=C(O)/C=C/C(=O)O [Example 54, 3-({2-(2-chloropyridin-3-yl)-4-[(methylamino)methyl]-1H-pyrrol-1-yl}sulfonyl)benzonitrile fumarate]
92.7%	−0.8%	6.89	CNCc1cn(S(=O)(=O)c2cccc(CO)c2)c(-c2cccnc2F)c1F [Example 48, [3-({3-fluoro-2-(2-fluoropyridin-3-yl)-4-[(methylamino)methyl]-1H-pyrrol-1-yl}sulfonyl)phenyl]methanol 0.5 fumarate]
88.1%	−0.5%	7.03	CNCc1cn(S(=O)(=O)c2ccoc2C)c(-c2cccnc2F)c1F.Cl [Example 72, 1-{4-fluoro-5-(2-fluoropyridin-3-yl)-1-[(2-methylfuran-3-yl)sulfonyl]-1H-pyrrol-3-yl}-N-methylmethanamine hydrochloride]
102.0%	−0.6%	7.01	CNCc1cn(S(=O)(=O)c2ccccn2)c(-c2cccnc2F)c1F.Cl [Example 85, 1-[4-fluoro-5-(2-fluoropyridin-3-yl)-1-(pyridin-2-ylsulfonyl)-1H-pyrrol-3-yl]-N-methylmethanamine hydrochloride]
97.1%	0%	6.92	CNCc1cc(-c2cccnc2C#N)n(S(=O)(=O)c2ccccc2)c1.Cl [Example 16, 3-{4-[(methylamino)methyl]-1-(phenylsulfonyl)-1H-pyrrol-2-yl}pyridine-2-carbonitrile hydrochloride]
101.7%	−0.2%	6.52	CNCc1cn(S(=O)(=O)c2cnn(C(F)F)c2)c(-c2cccnc2F)c1F.Cl [Example 81, 1-[1-{[1-(difluoromethyl)-1H-pyrazol-4-yl]sulfonyl}-4-fluoro-5-(2-fluoropyridin-3-yl)-1H-pyrrol-3-yl]-N-methylmethanamine hydrochloride]
88.1%	−1.3%	7.59	CNCc1cc(-c2cccnc2F)n(S(=O)(=O)c2ccccc2)c1.O=C(O)/C=C/C(=O)O [Example 1, 1-[5-(2-fluoropyridin-3-yl)-1-(phenylsulfonyl)-1H-pyrrol-3-yl]-N-methylmethanamine fumarate]
90.4%	−0.8%	7.37	CNCc1cc(-c2cccnc2Cl)n(S(=O)(=O)c2ccccc2)c1.Cl [Example 15, 1-[5-(2-chloropyridin-3-yl)-1-(phenylsulfonyl)-1H-pyrrol-3-yl]-N-methylmethanamine hydrochloride]
94.8%	−0.2%	6.85	CNCc1cn(S(=O)(=O)c2ccc(CF)o2)c(-c2cccnc2F)c1F.O=C(O)/C=C/C(=O)O [Example 66, 1-[4-fluoro-1-{[5-(fluoromethyl)-2-furyl]sulfonyl}-5-(2-fluoropyridin-3-yl)-1H-pyrrol-3-yl]-N-methylmethanamine fumarate]
86.6%	−0.2%	7.24	CNCc1cc(-c2cccnc2F)n(S(=O)(=O)c2ccc(F)cc2)c1.O=C(O)/C=C/C(=O)O [Example 20, 1-{1-[(4-fluorophenyl)sulfonyl]-5-(2-fluoropyridin-3-yl)-1H-pyrrol-3-yl}-N-methylmethanamine fumarate]
93.4%	−0.4%	6.89	CNCc1cn(S(=O)(=O)c2cccnc2)c(-c2cccnc2Cl)c1F.O=C(O)/C=C/C(=O)O [Example 38, 1-[5-(2-chloropyridin-3-yl)-4-fluoro-1-(pyridin-3-ylsulfonyl)-1H-pyrrol-3-yl]-N-methylmethanamine fumarate]
83.4%	3.6%	6.77	CNCc1cn(S(=O)(=O)c2ccc(C#N)o2)c(-c2cccnc2F)c1F.O=C(O)/C=C/C(=O)O [Example 68, 5-({3-fluoro-2-(2-fluoropyridin-3-yl)-4-[(methylamino)methyl]-1H-pyrrol-1-yl}sulfonyl)-2-furonitrile fumarate]
96.6%	0.3%	6.74	CNCc1cn(S(=O)(=O)c2nccs2)c(-c2cccnc2F)c1F.Cl [Example 83, 1-[4-fluoro-5-(2-fluoropyridin-3-yl)-1-(1,3-thiazol-2-ylsulfonyl)-1H-pyrrol-3-yl]-N-methylmethanamine hydrochloride]
97.3%	−0.5%	6.64	CNCc1cc(-c2cccnc2C#N)n(S(=O)(=O)c2ccccc2C#N)c1.Cl [Example 101, 3-{1-[(2-cyanophenyl)sulfonyl]-4-[(methylamino)methyl]-1H-pyrrol-2-yl}pyridine-2-carbonitrile hydrochloride]
99.8%	−0.3%	7.22	CNCc1cn(S(=O)(=O)c2ccoc2)c(-c2cccnc2F)c1F.Cl [Example 50, 1-[4-fluoro-5-(2-fluoropyridin-3-yl)-1-(3-furylsulfonyl)-1H-pyrrol-3-yl]-N-methylmethanamine hydrochloride]
98.0%	−1.9%	6.52	CNCc1cn(S(=O)(=O)c2cnn(C)c2)c(-c2cccnc2F)c1Cl.O=C(O)/C=C/C(=O)O [Example 58, 1-{4-chloro-5-(2-fluoropyridin-3-yl)-1-[(1-methyl-1H-pyrazol-4-yl)sulfonyl]-1H-pyrrol-3-yl}-N-methylmethanamine fumarate]
–	–	7.15	CNCc1cn(S(=O)(=O)c2cccnc2)c(-c2cccnc2F)c1F [Example 28, 1-[4-fluoro-5-(2-fluoropyridin-3-yl)-1-(pyridin-3-ylsulfonyl)-1H-pyrrol-3-yl]-N-methylmethanamine 0.5 fumarate]
